“And” between values parts separate entries of the source, which are not always exact repeats. Equal entries are not always repeated.
Tested on: hypertriglyceridemic patients with cardiovascular disease or at high risk for cardiovascular disease
Assay: REDUCE-IT: time to first occurrence of adjudicated cardiovascular endpoint events (primary, key secondary, other secondary, tertiary; sensitivity and landmark analyses)
Format: in vivo
Conditions: for New Onset Hypertension, patients with event: non-adjudicated
Text: The following study, also referred to as the REDUCE-IT clinical trial, was a large cardiovascular (CV) outcome trial designed to assess CV risk reduction benefit of AMR101 treatment (commercially known as VASCEPA®) versus placebo on the 5-point primary composite endpoint: CV death, non-fatal stroke, non-fatal myocardial infarction (MI), coronary revascularizations, or unstable angina requiring hospitalization.
A multi-center, prospective, randomized, double-blind, placebo-controlled, parallel-group study was performed to evaluate the effect of AMR101 (4 g per day) on cardiovascular health and mortality in hypertriglyceridemic patients with cardiovascular disease or at high risk for cardiovascular disease. The intended expanded indication of the study was treatment with AMR101 as an add-on to statin therapy to reduce the risk of cardiovascular events in patients with clinical cardiovascular disease or with multiple risk factors for cardiovascular disease.
The primary objective of this study was, in patients at LDL-C goal while on statin therapy, with established cardiovascular disease (CVD) or at high risk for CVD, and hypertriglyceridemia (e.g., fasting triglycerides (TG) ≥200 mg/dL and <500 mg/dL), to evaluate the effect of AMR101 4 g daily on time from randomization to first occurrence of any component of the composite of the following major CV events: CV death; nonfatal MI; (including silent MI; electrocardiograms (ECGs) were performed annually for the detection of silent MIs); nonfatal stroke; coronary revascularization; and unstable angina determined to be caused by myocardial ischemia by invasive/non-invasive testing and requiring emergent hospitalization.
The key secondary objective of this study was to evaluate the effect of AMR101 4 g daily on the time from randomization to the first occurrence of the composite of following major CV events: CV death, nonfatal MI (including silent MI), and nonfatal stroke.
Other secondary objectives for this study were to evaluate the effect of therapy on time from randomization to the first occurrence of the following individual or composite endpoints: composite of CV death or nonfatal MI (including silent MI); fatal or nonfatal MI (including silent MI); non-elective coronary revascularization represented as the composite of emergent or urgent classifications; CV death; unstable angina determined to be caused by myocardial ischemia by invasive/non-invasive testing and requiring emergent hospitalization; fatal or nonfatal stroke; composite of total mortality, nonfatal MI (including silent MI), or nonfatal stroke; and total mortality.
The key tertiary objectives for this study were to evaluate the effect of AMR101 4 g daily from baseline and percent change from baseline in fasting triglycerides and LDL-C. […]

[1] = ITT population, 4 g daily, N = 4089
[2] = ITT population, listed as Icosapent Ethyl

Question: With `CC/C=C\C/C=C\C/C=C\C/C=C\C/C=C\CCCC(=O)OCC` [AMR101, eicosapentaenoic acid ethyl ester] as the compound, how does the “Key secondary endpoint, HR” value (2-year landmark, ITT population) read?
Answer: 0.831

Question: What about the “Fatal or nonfatal MI, relative risk reduction” value (4 g per day) of the same compound?
Answer: 31%

Question: What about the “Fatal or nonfatal stroke, relative risk reduction” value (4 g per day) of the same compound?
Answer: 28%

Question: What about the “Hospitalization for unstable angina, relative risk reduction” value (4 g per day) of the same compound?
Answer: 32%

Question: What about the “Total mortality, nonfatal MI, or nonfatal stroke, relative risk reduction” value (4 g per day) of the same compound?
Answer: 23%

Question: What about the “Total mortality, relative risk reduction” value (4 g per day) of the same compound?
Answer: 13%

Question: What about the “Urgent or emergent revascularization, relative risk reduction” value (4 g per day) of the same compound?
Answer: 35%

Question: What about the “Non-CV deaths, patients” value (CEC-adjudicated) of the same compound?
Answer: 2.4%

Question: What about the “Total mortality, patients” value (CEC-adjudicated deaths) of the same compound?
Answer: 6.7%

Question: And the “Component contributing to key secondary endpoint (first event): CV Death” value (ITT population)?
Answer: 149 (3.6) n (%)

Question: What about the “Component contributing to key secondary endpoint (first event): Nonfatal MI” value (ITT population) of the same compound?
Answer: 230 (5.6) n (%)

Question: What about the “Component contributing to key secondary endpoint (first event): Nonfatal Stroke” value (ITT population) of the same compound?
Answer: 80 (2.0) n (%)

Question: And the “Component contributing to primary endpoint (first event): CV Death” value (ITT population)?
Answer: 137 (3.4) n (%)

Question: And the “Component contributing to primary endpoint (first event): Coronary Revascularization” value (ITT population)?
Answer: 189 (4.6) n (%)

Question: What about the “Component contributing to primary endpoint (first event): Hospitalization for Unstable Angina” value (ITT population) of the same compound?
Answer: 94 (2.3) n (%)

Question: What about the “Component contributing to primary endpoint (first event): Nonfatal MI” value (ITT population) of the same compound?
Answer: 205 (5.0) n (%)

Question: And the “Component contributing to primary endpoint (first event): Nonfatal Stroke” value (ITT population)?
Answer: 80 (2.0) n (%)

Question: And the “Composite: CV Death, Nonfatal MI, Non-Elective Coronary Revascularization, Unstable Angina, Nonfatal Stroke, or PVD Requiring Intervention” value (ITT population)?
Answer: 683 (16.7) n (%)

Question: What about the “Composite: CV Death, Nonfatal MI, Non-Elective Coronary Revascularization, Unstable Angina, Nonfatal Stroke, or PVD Requiring Intervention, HR (95% CI)” value (ITT population) of the same compound?
Answer: 0.77 (0.70-0.86)

Question: And the “Composite: CV Death, Nonfatal MI, Non-Elective Coronary Revascularization, Unstable Angina, PVD Requiring Intervention, or Cardiac Arrhythmia” value (ITT population)?
Answer: 741 (18.1) n (%)

Question: And the “Composite: CV Death, Nonfatal MI, Non-Elective Coronary Revascularization, Unstable Angina, PVD Requiring Intervention, or Cardiac Arrhythmia, HR (95% CI)” value (ITT population)?
Answer: 0.86 (0.78-0.94)

Question: What about the “Composite: CV Death, Nonfatal MI, Non-Elective Coronary Revascularization, or Unstable Angina” value (ITT population) of the same compound?
Answer: 513 (12.5) n (%)

Question: And the “Composite: CV Death, Nonfatal MI, Non-Elective Coronary Revascularization, or Unstable Angina, HR (95% CI)” value (ITT population)?
Answer: 0.76 (0.68-0.85)

Question: What about the “Composite: CV Death, Nonfatal MI, Nonfatal Stroke, Cardiac Arrhythmia, or Cardiac Arrest” value (ITT population) of the same compound?
Answer: 589 (14.4) n (%)

Question: And the “Composite: CV Death, Nonfatal MI, Nonfatal Stroke, Cardiac Arrhythmia, or Cardiac Arrest, HR (95% CI)” value (ITT population)?
Answer: 0.82 (0.73-0.91)

Question: What about the “Coronary Revascularization (all), HR (95% CI)” value (ITT population) of the same compound?
Answer: 0.66

Question: What about the “Coronary Revascularization (all), patients with event” value (ITT population) of the same compound?
Answer: 9.2%

Question: And the “Fatal or nonfatal MI (including silent MI), patients with event” value (ITT population)?
Answer: 6.1%

Question: What about the “Fatal or nonfatal MI, HR” value (ITT population) of the same compound?
Answer: 0.688

Question: And the “Fatal or nonfatal stroke, HR” value (ITT population)?
Answer: 0.720

Question: And the “Fatal or nonfatal stroke, patients with event” value (ITT population)?
Answer: 2.4%

Question: What about the “Hospitalization for unstable angina, HR” value (ITT population) of the same compound?
Answer: 0.679

Question: And the “Hospitalization for unstable angina, patients with event” value (ITT population)?
Answer: 2.6%

Question: What about the “Key secondary endpoint in patients with impaired glucose metabolism at baseline, HR” value (ITT population) of the same compound?
Answer: 0.829

Question: And the “Key secondary endpoint in patients with impaired glucose metabolism at baseline, patients with event” value (ITT population)?
Answer: 11.3%

Question: What about the “New Heart Failure (newly emergent CHF), HR (95% CI)” value (ITT population) of the same compound?
Answer: 0.95

Question: And the “New Heart Failure (newly emergent CHF), patients with event” value (ITT population)?
Answer: 4.1%

Question: What about the “New Onset Hypertension, HR (95% CI)” value (ITT population) of the same compound?
Answer: 0.86

Question: What about the “Non-elective (emergent or urgent) coronary revascularization, HR” value (ITT population) of the same compound?
Answer: 0.653

Question: And the “Peripheral Artery Disease, HR (95% CI)” value (ITT population)?
Answer: 0.97

Question: What about the “Peripheral Artery Disease, patients with event” value (ITT population) of the same compound?
Answer: 3.8%

Question: And the “Primary endpoint in patients with diabetes at baseline, HR (95% CI)” value (ITT population)?
Answer: 0.769 (0.677-0.873)

Question: What about the “Primary endpoint in patients with diabetes at baseline, patients with event” value (ITT population) of the same compound?
Answer: (18.1%)

Question: What about the “Primary endpoint in patients with impaired glucose metabolism at baseline, HR (95% CI)” value (ITT population) of the same compound?
Answer: 0.795 (0.675-0.937)

Question: What about the “Primary endpoint in patients with metabolic syndrome at baseline, HR (95% CI)” value (ITT population) of the same compound?
Answer: 0.744 (0.671-0.824)

Question: What about the “Silent MI, patients with event” value (ITT population) of the same compound?
Answer: 0.7%

Question: What about the “Sudden Cardiac Death, HR (95% CI)” value (ITT population) of the same compound?
Answer: 0.69

Question: And the “Total Mortality or Newly Emergent CHF” value (ITT population)?
Answer: 393 (9.6) n (%)

Question: And the “Total Mortality or Newly Emergent CHF, HR (95% CI)” value (ITT population)?
Answer: 0.90 (0.78-1.03)

Question: And the “Total mortality, HR” value (ITT population)?
Answer: 0.87

Question: What about the “Total mortality, nonfatal MI, or nonfatal stroke, HR” value (ITT population) of the same compound?
Answer: 0.772

Question: And the “Key secondary composite endpoint (CV death, nonfatal MI, nonfatal stroke), patients with event” value [1]?
Answer: 459 (11.2%) n (%) and 459 (11.2) n (%)

Question: What about the “Primary composite endpoint (CV death, nonfatal MI, nonfatal stroke, coronary revascularization, hospitalization for unstable angina), patients with event” value [1] of the same compound?
Answer: 705 (17.2%) n (%) and 705 (17.2) n (%)

Question: What about the “New Onset Hypertension, patients with event” value (ITT population) of the same compound?
Answer: 0.3%

Question: And the “New Onset Hypertension, patients with event” value [2]?
Answer: (0.3) %

Question: And the “Amputation for PVD, patients with event” value [2]?
Answer: (0.5%)

Question: And the “Cardiac Arrest, HR (95% CI)” value [2]?
Answer: 0.52 (0.31, 0.86)

Question: And the “Cardiac Arrest, patients with event” value [2]?
Answer: (0.5%)

Question: And the “Coronary Revascularization (all), HR (95% CI)” value [2]?
Answer: 0.66 (0.58, 0.76)

Question: And the “Coronary Revascularization (all), patients with event” value [2]?
Answer: (9.2%)

Question: And the “Elective Revascularization, HR (95% CI)” value [2]?
Answer: 0.68 (0.57, 0.82)

Question: And the “Elective Revascularization, patients with event” value [2]?
Answer: (4.7%)

Question: And the “Emergent Revascularization, HR (95% CI)” value [2]?
Answer: 0.62 (0.42, 0.92)

Question: And the “Emergent Revascularization, patients with event” value [2]?
Answer: (1.0%)

Question: What about the “Ischemic Stroke, HR (95% CI)” value [2] of the same compound?
Answer: 0.64 (0.49, 0.85)

Question: What about the “Ischemic Stroke, patients with event” value [2] of the same compound?
Answer: (2.0%)

— patent publication US12427134B2, “Methods of reducing the risk of cardiovascular events in a subject with atrial fibrillation and/or atrial flutter” (priority 2019, dated 2025)
